Reference: article PMC7996328, “Design, Synthesis, and Biological Evaluation of a Series of 5- and 7-Hydroxycoumarin Derivatives as 5-HT1A Serotonin Receptor Antagonists” (Pharmaceuticals, 2021)
Read-outs that look alike come from different tables or passages of the source.

Tests used:
[1] = target: T1, 5-HT1A receptor (Rattus norvegicus, UniProt P19327); test: G-protein enhancing (agonist) effect at the 5-HT1A receptor; assay type: biochemical
T1 construct: Hippocampal homogenates (15 μg/mL) were added to each tube as the 5-HT1A receptor source; from tissue; host or cells: rat hippocampus (male Sprague-Dawley), membrane homogenate
T1 sequence (P19327 1-422): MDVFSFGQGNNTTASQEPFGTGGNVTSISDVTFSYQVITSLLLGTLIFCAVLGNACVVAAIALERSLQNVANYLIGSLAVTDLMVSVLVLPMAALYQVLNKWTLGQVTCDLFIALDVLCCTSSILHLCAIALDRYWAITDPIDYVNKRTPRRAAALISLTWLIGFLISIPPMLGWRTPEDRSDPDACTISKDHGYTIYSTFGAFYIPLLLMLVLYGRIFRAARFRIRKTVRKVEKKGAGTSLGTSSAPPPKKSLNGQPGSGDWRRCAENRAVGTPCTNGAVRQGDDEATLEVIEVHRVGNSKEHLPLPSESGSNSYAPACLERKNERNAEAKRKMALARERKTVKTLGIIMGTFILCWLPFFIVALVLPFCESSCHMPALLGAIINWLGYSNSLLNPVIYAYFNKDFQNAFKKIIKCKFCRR

[2] = target: T2, 5-HT2A receptor (Rattus norvegicus, UniProt P14842); test: 5-HT2A competition binding assay, [3H]ketanserin, frontal cortex homogenates; conditions: [3H]ketanserin 1 nM
T2 construct: from tissue; host or cells: rat frontal cortex (male SD), membrane homogenate
T2 sequence (P14842 whole entry): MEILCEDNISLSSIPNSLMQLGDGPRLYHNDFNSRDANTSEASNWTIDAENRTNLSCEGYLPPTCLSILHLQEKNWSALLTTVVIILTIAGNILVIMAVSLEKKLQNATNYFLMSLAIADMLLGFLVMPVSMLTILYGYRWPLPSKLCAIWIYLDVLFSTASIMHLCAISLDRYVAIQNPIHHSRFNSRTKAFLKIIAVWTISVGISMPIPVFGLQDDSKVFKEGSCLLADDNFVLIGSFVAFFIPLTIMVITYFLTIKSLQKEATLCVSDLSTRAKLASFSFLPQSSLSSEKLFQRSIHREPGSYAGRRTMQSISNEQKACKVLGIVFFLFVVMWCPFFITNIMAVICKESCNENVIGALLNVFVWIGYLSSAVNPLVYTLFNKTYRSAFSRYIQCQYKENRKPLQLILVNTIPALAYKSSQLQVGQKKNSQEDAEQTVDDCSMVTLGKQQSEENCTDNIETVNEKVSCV
Description: Male SD rats were decapitated and their brains removed and placed on ice. Frontal cortices were homogenized with a glass homogenizer in 30 vol ice-cold homogenization buffer (50 mM Tris-HCl. 1 mM EDTA. 5 mM MgCl2. pH 7.4). Next, the homogenate was centrifuged at 20,000× g for 15 min at 4 °C. […] The suspension was again centrifuged at 20,000× g for 15 min at 4 °C. The pellet was resuspended in 10 vol. 50 mM Tris-HCl (pH 7.4) and the centrifugation step was repeated. The final pellet was suspended in 10 vol 50 mM Tris-HCl (pH 7.4) and stored at −80 °C.
Non-specific binding was determined in the presence of 10 μM mianserin. After incubation, the reaction mixture was deposited onto UniFilter-96 GF/B plates with the aid of a FilterMate-96 Harvester. Filter plates were presoaked beforehand with 0.4% PEI for 1 h. Next, each filter well was washed with 1.75 mL of 50 mM Tris-HCl (pH 7.4) and left to dry on a heating block set to 50 °C for 2 h. Then 45 µL of Microscint-20 scintillation fluid was added to each filter well and left to equilibrate overnight. Filter-bound radioactivity was counted in a MicroBeta^2 Microplate Counter. Binding curves were fitted with one site non-linear regression. Affinity was presented as the inhibitory constant (pKi ± SEM and Ki ± SEM) from two or three separate experiments.

[3] = target: T1, 5-HT1A receptor; test: Antagonist activity for the 5-HT1A receptor, [35S]GTPγS assay in hippocampal homogenates; assay type: biochemical; conditions: 8-OH-DPAT 1.4 × 10^−7 M, mean ± SEM; for EC50: antagonistic activity
Description: Male Sprague–Dawley rats were decapitated, their brains removed, and placed on ice. Hippocampi were dissected and homogenized with a glass homogenizer in 30 vol. ice-cold TED buffer (50 mM Tris-HCl, 1 mM EDTA, 1mM dithiotheritol, pH 7.4). Next, the homogenate was centrifuged at 21,000× g for 30 min at 4 °C. […] The suspension was centrifuged again at 21,000× g for 30 min at 4 °C. The pellet was resuspended in 30 vol. TED buffer (pH 7.4) and the centrifugation step was repeated. The final pellet was suspended in 10 vol 50 mM Tris-HCl (pH 7.4) and stored at −80 °C until use.
Serial dilutions of the compounds tested (10^−10–10^−5 M) were incubated in triplicate with 0.8 nM [^35S]GTPγS in assay buffer (50 mM Tris-HCl, pH = 7.4, 1 mM EGTA, 3 mM MgCl2, 100 mM NaCl, 30 µM GDP) and 8-OH-DPAT (final concentration 1.4 × 10^−7 M) in the final assay volume of 250 µL. Hippocampal homogenates (15 μg/mL) were added to each tube as the 5-HT1A receptor source. […] Non-specific binding was determined with 10 µM of unlabeled GTPγS. […] Next, 96-well Unifilter® Plates (Perkin Elmer, Waltham, MA, USA) were presoaked for 1 h with 50 mM Tris-HCl (pH = 7.4) before harvesting. The reaction was terminated by vacuum filtration onto filter plates with the FilterMate Harvester® (Perkin Elmer, Waltham, MA, USA). The samples were then rapidly washed with 2 mL of 50 mM Tris-HCl (pH = 7.4) buffer. Filter plates were dried for 2 h at 50 °C. After drying, 45 µL of EcoScint-20 scintillant (Perkin Elmer) was added to every well. Radioactivity was counted in a Trilux MicroBeta^2 counter (Perkin Elmer). Data were analyzed with GraphPad Prism 5.0 software (GraphPad Software, San Diego, CA, USA, www.graphpad.com). Curves were fitted with a one-site non-linear regression model. Efficacy (Emax) and half maximal inhibitory concentration (IC50) were calculated from the Cheng–Prusoff equation and expressed as means ± SEM.

[4] = read-out: Ki (nM ± SEM) (converted)
[5] = read-out: pKi (M ± SEM) (converted)

SMILES	melting point [°C]	Emax ([1]; G-protein enhancing effect, 5-HT1A) [%]	EC50 ([1]; G-protein enhancing effect, 5-HT1A, read-out: EC50 (nM ± SEM)) [nM]	functional character at the 5-HT1A receptor ([1]; in words)	Ki [2, 4] [nM]	IC50 [3] [µM]	EC50 [3] [nM]	Ki [2, 5] [nM]
Cc1cc(OCCN2CCN(c3cccc(F)c3)CC2)c2c(C)cc(=O)oc2c1 [Compound 2e, 5-(2-(4-(3-fluorophenyl)piperazin-1-yl)ethoxy)-4,7-dimethyl-2H-chromen-2-one]	120 to 122	118 ± 1.48	179 ± 39.3	weak partial agonists	–	–	–	–
COc1ccccc1N1CCN(CCCCCOc2ccc3c(C)cc(=O)oc3c2C(C)=O)CC1 [Compound 5a, 8-acetyl-7-(5-[4-(2-methoxyphenyl)piperazin-1-yl]penthoxy)-4-methylchromen-2-one]	126 to 128	–	–	–	343 ± 86	0.0316	30.5 ± 2.56	–
CC(=O)c1c(OCCCCCN2CCN(c3ccccc3F)CC2)ccc2c(C)cc(=O)oc12 [Compound 5b, 8-acetyl-7-(5-[4-(2-fluorophenyl)piperazin-1-yl]penthoxy)-4-methylchromen-2-one]	95 to 97	–	–	–	122 ± 43	0.0794	82 ± 13.4	–
CC(=O)c1c(OCCCCCN2CCN(c3cc(C)ccc3C)CC2)ccc2c(C)cc(=O)oc12 [Compound 5d, 8-acetyl-7-(5-[4-(2,5-dimethylphenyl)piperazin-1-yl]penthoxy)-4-methylchromen-2-one]	92 to 94	–	–	–	1500 ± 279	12.6	12900	–
CC(=O)c1c(OCCCCCN2CCN(c3cccc(F)c3)CC2)ccc2c(C)cc(=O)oc12 [Compound 5e, 8-acetyl-7-(5-[4-(3-fluorophenyl)piperazin-1-yl]penthoxy)-4-methylchromen-2-one]	117 to 119	–	–	–	2110 ± 420	31.6	33900	–
CC(=O)c1c(OCCCCCN2CCN(c3ccccc3Br)CC2)ccc2c(C)cc(=O)oc12 [Compound 5f, 8-acetyl-7-(5-[4-(2-bromophenyl)piperazin-1-yl]penthoxy)-4-methylchromen-2-one]	102 to 103	–	–	–	108 ± 24	31.6	27400	110
CC(=O)c1c(OCCCCCN2CCN(c3cccc(Br)c3)CC2)ccc2c(C)cc(=O)oc12 [Compound 5g, 8-acetyl-7-(5-[4-(3-bromohenyl)piperazin-1-yl]penthoxy)-4-methylchromen-2-one]	119 to 121	–	–	–	81 ± 19	25.1	21500	–
CC(=O)c1c(OCCCCCN2CCN(c3cc(C)cc(C)c3)CC2)ccc2c(C)cc(=O)oc12 [Compound 5h, 8-acetyl-7-(5-[4-(3,5-dimethylphenyl)piperazin-1-yl]penthoxy)-4-methylchromen-2-one]	113 to 115	–	–	–	291 ± 57	31.6	32900	–
CC(=O)c1c(OCCCCCN2CCN(c3cccc(Cl)c3Cl)CC2)ccc2c(C)cc(=O)oc12 [Compound 5i, 8-acetyl-7-(5-[4-(2,3-dichlorophenyl)piperazin-1-yl]penthoxy)-4-methylchromen-2-one]	137 to 139	–	–	–	51 ± 8.3	63.1	55900	63.1
CC(=O)c1c(OCCCCCN2CCN(c3ccccc3C#N)CC2)ccc2c(C)cc(=O)oc12 [Compound 5j, 8-acetyl-7-(5-[4-(2-cyanophenyl)piperazin-1-yl]penthoxy)-4-methylchromen-2-one]	59 to 61	–	–	–	2550 ± 765	15.8	13900	–
COc1ccccc1N1CCN(CCOc2ccc3c(C)cc(=O)oc3c2C(C)=O)CC1 [Compound 6a, 8-acetyl-7-(2-[4-(2-methoxyphenyl)piperazin-1-yl]ethoxy)-4-methylchromen-2-one]	157 to 159	–	–	–	752 ± 171	3.16	2740 ± 626	–
CC(=O)c1c(OCCN2CCN(c3ccccc3F)CC2)ccc2c(C)cc(=O)oc12 [Compound 6b, 8-acetyl-7-(2-[4-(2-fluorophenyl)piperazin-1-yl]ethoxy)-4-methylchromen-2-one]	137 to 139	–	–	–	1510 ± 344	50.1	45300	–
COc1cccc(N2CCN(CCOc3ccc4c(C)cc(=O)oc4c3C(C)=O)CC2)c1 [Compound 6c, 8-acetyl-7-(2-[4-(3-methoxyphenyl)piperazin-1-yl]ethoxy)-4-methylchromen-2-one]	122 to 124	–	–	–	920 ± 160	50.1	47200	933
CC(=O)c1c(OCCN2CCN(c3cc(C)ccc3C)CC2)ccc2c(C)cc(=O)oc12 [Compound 6d, 8-acetyl-7-(2-[4-(2,5-dimethylphenyl)piperazin-1-yl]ethoxy)-4-methylchromen-2-one]	96 to 98	–	–	–	2050 ± 405	63.1	59900	–
CC(=O)c1c(OCCN2CCN(c3cccc(F)c3)CC2)ccc2c(C)cc(=O)oc12 [Compound 6e, 8-acetyl-7-(2-[4-(3-fluorophenyl)piperazin-1-yl]ethoxy)-4-methylchromen-2-one]	86 to 88	–	–	–	1670 ± 274	100	98900	–
CC(=O)c1c(OCCN2CCN(c3ccccc3Br)CC2)ccc2c(C)cc(=O)oc12 [Compound 6f, 8-acetyl-7-(2-[4-(2-bromophenyl)piperazin-1-yl]ethoxy)-4-methylchromen-2-one]	145 to 147	–	–	–	1500 ± 268	50.1	46800	–
CC(=O)c1c(OCCN2CCN(c3cc(C)cc(C)c3)CC2)ccc2c(C)cc(=O)oc12 [Compound 6h, 8-acetyl-7-(2-[4-(3,5-dimethylphenyl)piperazin-1-yl]ethoxy)-4-methylchromen-2-one]	120 to 121	–	–	–	479 ± 96	50.1	47800	–
CC(=O)c1c(OCCN2CCN(c3cccc(Cl)c3Cl)CC2)ccc2c(C)cc(=O)oc12 [Compound 6i, 8-acetyl-7-(2-[4-(2,3-dichlorophenyl)piperazin-1-yl]ethoxy)-4-methylchromen-2-one]	159 to 161	–	–	–	755 ± 178	200	204000	–
CC(=O)c1c(OCCN2CCN(c3ccccc3C#N)CC2)ccc2c(C)cc(=O)oc12 [Compound 6j, 8-acetyl-7-(2-[4-(2-cyanophenyl)piperazin-1-yl]ethoxy)-4-methylchromen-2-one]	155 to 157	–	–	–	496 ± 121	7.94	7800 ± 1880	–
